Reference: ChEMBL document CHEMBL1147915, “Carbonic anhydrase inhibitors. Inhibition of isoforms I, II, IV, VA, VII, IX, and XIV with sulfonamides incorporating fructopyranose-thioureido tails” (Bioorg Med Chem Lett, 2007)

Assays:
Mus musculus [1] = assay: Anticonvulsant activity in OF1 mouse at 50 mg/kg, ip after 2 hrs by MES test; format: functional; conditions: route intraperitoneal
Carbonic anhydrase 9 = Carbonic anhydrase 9 (Homo sapiens, UniProt Q16790)
Description: Inhibition of human recombinant CA9 after 15 mins by CO2 hydration stopped flow assay

Mus musculus [2] = assay: Anticonvulsant activity in OF1 mouse at 30 mg/kg, ip after 2 hrs by MES test; format: functional; conditions: route intraperitoneal

Row | Structure (SMILES) | Ki (Carbonic anhydrase 9) [nM] | Activity (Mus musculus [1]) [%] | Activity (Mus musculus [2]) [%]
1 | CC1(C)O[C@@H]2[C@@H](CO[C@@]3(CNC(=S)Nc4ccc(S(N)(=O)=O)cc4F)OC(C)(C)O[C@@H]23)O1 | 110 | 87.5 | 
2 | CC1(C)O[C@@H]2[C@@H](CO[C@@]3(CNC(=S)NCCc4ccc(S(N)(=O)=O)cc4)OC(C)(C)O[C@@H]23)O1 |  | 0 | 
3 | NC(=O)N1c2ccccc2C=Cc2ccccc21 [CARBAMAZEPINE] |  |  | 100
4 | O=C1NC(=O)C(c2ccccc2)(c2ccccc2)N1 [PHENYTOIN] |  |  | 100
5 | CC1(C)O[C@@H]2[C@@H](CO[C@@]3(COS(N)(=O)=O)OC(C)(C)O[C@@H]23)O1 [TOPIRAMATE] |  | 68.75 | 

Further lines, with some results ahead:

Row | Ki (Carbonic anhydrase 9) [nM] | Structure (SMILES) | Activity (Mus musculus [1]) [%] | Activity (Mus musculus [2]) [%]
6 | 82 | CC1(C)O[C@@H]2[C@@H](CO[C@@]3(CNC(=S)Nc4ccc(S(N)(=O)=O)cc4)OC(C)(C)O[C@@H]23)O1 | 0 | 
7 | 4500 | CC1(C)O[C@@H]2[C@@H](CO[C@@]3(CNC(=S)Nc4cccc(S(N)(=O)=O)c4)OC(C)(C)O[C@@H]23)O1 | 0 | 
8 | 134 | CC1(C)O[C@@H]2[C@@H](CO[C@@]3(CNC(=S)Nc4ccc(S(N)(=O)=O)cc4Cl)OC(C)(C)O[C@@H]23)O1 | 0 | 
9 | 11 | CC1(C)O[C@@H]2[C@@H](CO[C@@]3(CNC(=S)Nc4ccc(S(=O)(=O)NCc5ccc(S(N)(=O)=O)cc5)cc4F)OC(C)(C)O[C@@H]23)O1 | 20 | 
10 | 76 | CC1(C)O[C@@H]2[C@@H](CO[C@@]3(CNC(=S)Nc4ccc(S(=O)(=O)Nc5nnc(S(N)(=O)=O)s5)cc4F)OC(C)(C)O[C@@H]23)O1 | 0 | 
